The record followed here is patent US10239881B2, “RIPK2 inhibitors and method of treating cancer with same” (University Health Network, priority 2014, dated 2019).

Each structure is given as a SMILES string. pIC50: −log10 of the molar value.

The target of one data set is human RIPK2 kinase (Homo sapiens (Human), UniProt O43353). The data set is described as follows: RIPK2 inhibition assay (indirect ELISA). The format is biochemical. The following applies: His-RIPK2 0.6 nM, 6 μM ATP; read-out: RIPK2 IC50 range. How it is done: Active RIPK2 was purchased from Life Technologies as His-tagged of catalityc domain (amin acids 1-299) of human RIPK2 kinase expressed in insect cells. Amino terminal 6 histidine, sumo tagged human TTK (residues 1-275) was expressed in E. coli, and purified to >95% homogeneity by Ni^2+ agarose, gel filtration, and ion exchange chromatography.
RIPK2 activity was measured using an indirect ELISA detection system. His—RIPK2 (0.6 nM) was incubated in the presence of 6 μM ATP (Sigma cat # A7699), 20 mM Hepes, pH 7.5, 1 mM EGTA, 2.5 mM MgCl2, 2.5 mM MnCl2 and 0.01% Triton X-100 in a 96 well microtitre plate pre-coated with amino terminal 6 histidine, sumo tagged TTK (amino acid residues 1-275). The reaction was allowed to proceed for 30 minutes, followed by 5 washes of the plate with Wash Buffer (phosphate buffered saline supplemented with 0.2% Tween 20), and incubation for 30 minutes with a 1:3000 dilution of primary antibody (Cell Signaling cat #9381). The plate was washed 5 times with Wash Buffer, incubated for 30 minutes in the presence of secondary antibody coupled to horse radish peroxidase (BioRad cat #1721019, 1:3000 concentration), washed an additional 5 times with Wash Buffer, and incubated in the presence of TMB substrate (Sigma cat # T0440). The colorimetric reaction was allowed to continue for 5 minutes, followed by addition of stop solution (0.5 N H2SO4), and quantified by detection at 450 nm with either a monoChromatic or filter based plate reader (Molecular Devices M5 or Beckman DTX880, respectively).
Compound inhibition was determined at either a fixed concentration (10 μM) or at a variable inhibitor concentration (typically 50 μM to 0.1 μM in a 10 point dose response titration). Compounds were pre-incubated in the presence of enzyme for 15 minutes prior to addition of ATP and the activity remaining quantified using the above described activity assay. The % Inhibition of a compound was determined using the following formula; % Inhibition=100×(1−(experimental value−background value)/(high activity control−background value)). The IC50 value was determined using a non-linear 4 point logistic curve fit (XLfit4, IDBS) with the formula; (A+(B/(1+((x/C)^D)))), where A=background value, B=range, C=inflection point, D=curve fit parameter.
For orientation: In an ELISA, binding on a coated surface is turned into a signal by an enzyme label.

Data set [1] concerns MDA-MB-231 breast cancer cells. The data set is described as follows: Sulforhodamine B cell growth inhibition assay. The format is cell-based. The note with it: Homo sapiens, MDA-MB-231, 120 h; 5 days, SRB; read-out: Breast GI50 range MDA-MB-231. How it is done: (§1) Breast cancer cells (MDA-MB-231 and MDA-MB-468), colon cancer cells (HCT116 and HT-29) and ovarian cancer cells (SKOV-3 and OVCAR-3) were seeded (1000 to 4000 in 80 μL per well depending on the cell growth rate) into 96 well plates 24 hours before compound overlay. Compounds were prepared as 10 mM stock solutions in 100% DMSO which were diluted with DMEM (Dulbecco's Modified Eagle's Medium) cell growth Medium (Invitrogen, Burlington, ON, Canada) containing 10% FBS (Fetal Bovine Serum) to concentrations ranging from 50 nM to 250 μM. Aliquots (20 μL) from each concentration were overlaid to 80 μL of the pre-seeded cells in the 96 well plates to make final concentrations of 10 nM to 50 μM. The cells were cultured for 5 days before the Sulforhodamine B assay (SRB) was performed to determine the compound's cell growth inhibition activity.
(§2) The cells are fixed in situ by gently aspirating off the culture media and adding 50 μL ice cold 10% trichloroacetic acid per well and incubate at 4° C. for 30-60 min. The plates are washed with H2O five times and allowed to air dry for 5 min. Addition of 50 μL 0.4% (w/v) SRB solution in 1% (v/v) acetic acid to each well and incubation for 30 min at rt completes the staining reaction. Following staining, plates are washed four times with 1% acetic acid to remove unbound dye and then allowed to air dry for 5 min. The stain is solubilized with 100 μL of 10 mM Tris pH 10.5 per well. Absorbance is read at 570 nm. The percentage (%) of relative growth inhibition was calculated by comparing to DMSO treated only cells (100%). GI50's were determined for compounds with cytotoxic activity. The GI50 was calculated using GraphPad PRISM software (GraphPad Software, Inc., San Diego, Calif., USA). GI50 (growth inhibition) is the compound concentration that causes 50% inhibition of cell growth.
(§3) In Table 2 lists GI50 value ranges for compound examples against breast cancer cell lines (MDA-MB-231, MDA-MB-468), colon cancer cell lines (HCT116, HT-29) and ovarian cancer cell lines (OVCAR-3, SKOV-3) are given. […] The GI50 ranges are indicated as “A,” “B,” and “C,” for values less than or equal to 1 μM; those greater than 1 μM and less than or equal to 10 μM; and those greater than 10 μM, respectively.

Data set [2] relates to SKOV-3 ovarian cancer cells. The data set is described as follows: Sulforhodamine B cell growth inhibition assay. It counts as cell-based. The note with it: Homo sapiens, SK-OV-3, 120 h; 5 days, SRB; read-out: Ovarian GI50 range SKOV-3. How it is done: as §1, §2, §3
For data set [3], the system named is HCT116 colon cancer cells. The data set is described as follows: Sulforhodamine B cell growth inhibition assay. It counts as cell-based. The note with it: Homo sapiens, HCT-116, 120 h; 5 days, SRB; read-out: Colon GI50 range HCT116. Here is the method: as §1, §2, §3
Another data set has as its system HT-29 colon cancer cells. The data set is described as follows: Sulforhodamine B cell growth inhibition assay. It counts as cell-based. The following applies: Homo sapiens, HT-29, 120 h; 5 days, SRB; read-out: Colon GI50 range HT29. Here is the method:
as §1, §2, §3

Data set [4] relates to OVCAR-3 ovarian cancer cells. The data set is described as follows: Sulforhodamine B cell growth inhibition assay. It counts as cell-based. The following applies: Homo sapiens, OVCAR-3, 120 h; 5 days, SRB; read-out: Ovarian GI50 range OVCAR-3. How it is done:
as §1, §2, §3

Data set [5] has as its system MDA-MB-468 breast cancer cells. The data set is described as follows: Sulforhodamine B cell growth inhibition assay. The format is cell-based. The following applies: Homo sapiens, MDA-MB-468, 120 h; 5 days, SRB; read-out: Breast GI50 range MDA-MB-468. How it is done:
as §1, §2, §3

The test system of data set [6] is mouse bone marrow dendritic cells. The data set is described as follows: Dendritic cell viability by 7AAD exclusion. It counts as cell-based. The following applies: stimulated 24 hours with LPS or Pam3Cys ± 1 μg/ml MDP. Here is the method:
(§4) IL-12-yellow fluorescent protein (YFP) reporter mouse bone marrow dendritic cells were stimulated for 24 hours with 0.3 ng/ml LPS±1 μg/ml MDP (i.e., NOD2 agonist) in the presence of Example A3 (FIG. 2A). IL-12-yellow fluorescent protein (YFP) reporter mouse bone marrow dendritic cells were stimulated for 24 hours with 0.3 μg/ml Pam3Cys±1 μg/ml MDP (i.e., NOD2 agonist) in the presence of Example A3 (FIG. 2B). […] Data are represented as the mean±SEM of triplicate measurements. Levels of IL-12 p70 (FIG. 2C, left panel) and TNFα (FIG. 2C, right panel) in the cell culture supernatants from A were measured by ELISA techniques with commercially available kits. […] Data are represented as the mean±SEM of triplicate measurements.

The test system of another data set is IL-12 p70. The data set is described as follows: IL-12 p70 in dendritic cell culture supernatants by ELISA. It counts as cell-based, mouse. The following applies: 0.3 ng/ml LPS ± 1 μg/ml MDP, 24 hours. How it is done: as §4
A further data set concerns TNFα. The data set is described as follows: TNFα in dendritic cell culture supernatants by ELISA. It counts as cell-based, mouse. The following applies: 0.3 ng/ml LPS ± 1 μg/ml MDP, 24 hours. Here is the method:
as §4

The test system of data set [7] is IL-12-yellow fluorescent protein (YFP) reporter mouse bone marrow dendritic cells. The data set is described as follows: IL-12-YFP reporter dendritic cells, flow cytometric analysis. The format is cell-based. The note with it: stimulated 24 hours with LPS or Pam3Cys ± 1 μg/ml MDP. How it is done: FIGS. 2(A)-(C) are graphs illustrating the effects of compound A3 on cytokine production by dendritic cells.
as §4

human RIPK2 kinase, sequence (O43353 1-299): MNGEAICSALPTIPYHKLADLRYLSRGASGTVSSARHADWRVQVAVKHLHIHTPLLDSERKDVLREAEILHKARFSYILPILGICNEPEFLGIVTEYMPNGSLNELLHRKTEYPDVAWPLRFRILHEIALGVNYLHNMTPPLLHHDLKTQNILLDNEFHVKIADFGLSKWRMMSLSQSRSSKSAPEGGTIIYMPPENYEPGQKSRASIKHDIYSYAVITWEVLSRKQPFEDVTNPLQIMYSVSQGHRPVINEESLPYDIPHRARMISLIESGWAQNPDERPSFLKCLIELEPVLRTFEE

With `Cc1cccc(C)c1-c1cc2nc(Nc3cccc(N4CCOCC4)c3)ncc2[nH]1` [Example A12, 6-(2,6-dimethylphenyl)-N-(3-morpholinophenyl)-5H-pyrrolo[3,2-d]pyrimidin-2-amine], the pIC50 on human RIPK2 kinase was ≥ 7.00. For the same compound, the GI50 in data set [1] was 1000 to 10000 nM; in data set [2], ≤ 1000 nM; in data set [3], 1000 to 10000 nM; in the data set with HT-29 colon cancer cells, 1000 to 10000 nM; in [4] it was ≤ 1000 nM; in [5] it was 1000 to 10000 nM.
`Cc1ccccc1-c1cc2nc(Nc3cccc(N4CCN(C)CC4)c3)ncc2[nH]1` [Example A4, N-(3-(4-methylpiperazin-1-yl)phenyl)-6-(o-tolyl)-5H-pyrrolo[3,2-d]pyrimidin-2-amine]: the negative-log IC50 (pIC50) on human RIPK2 kinase is ≥ 7.00. The GI50 is ≤ 1000 nM in data set [1]; 1000 to 10000 nM in data set [2]; ≤ 1000 nM in [3]; ≤ 1000 nM in the data set with HT-29 colon cancer cells; ≤ 1000 nM in data set [4]; ≤ 1000 nM in data set [5].
As for `Cc1ccccc1-c1cc2nc(Nc3cccc(N4CCOCC4)c3)ncc2[nH]1` [Example A3, N-(3-morpholinophenyl)-6-(o-tolyl)-5H-pyrrolo[3,2-d]pyrimidin-2-amine], the pIC50 at human RIPK2 kinase is ≥ 7.00. The “cell viability as assessed by 7AAD exclusion” value in data set [6] is reported as “no measurable effect”. In addition, the “levels of IL-12 p70 in cell culture supernatants” value in the data set with IL-12 p70 is listed as “dose-dependent reduction”. Also, the “levels of TNFα in cell culture supernatants” value with TNFα was “dose-dependent reduction”. Moreover, the GI50 (in [1]; in [2]; in data set [3]; with HT-29 colon cancer cells; in data set [4]; in data set [5]) was ≤ 1000 nM throughout. Further, the “percentage of YFP positive cells (percentage of IL-12 positive cells)” value in [7] is given as “minimal effect”. Further, the “mean fluorescence intensity YFP (amount of IL-12)” value in data set [7] (MDP-dependent) is reported as “dose-dependent reduction”.
In the case of `Fc1ccccc1-c1cc2nc(Nc3cccc(N4CCOCC4)c3)ncc2[nH]1` [Example A13, 6-(2-fluorophenyl)-N-(3-morpholino-phenyl)-5H-pyrrolo[3,2-d]pyrimidin-2-amine], at human RIPK2 kinase, the pIC50 was 6.30 to 7.00. Moreover, the 50% growth inhibitory concentration (GI50) (in data set [1]; in [2]; in data set [3]; in the data set with HT-29 colon cancer cells; in data set [4]; in [5]) was ≤ 1000 nM throughout.
As for `Cc1ccccc1-c1cc2nc(Nc3ccc(OC4CCN(C)CC4)cc3)ncc2[nH]1` [Example A2, N-(4-((1-methylpiperidin-4-yl)oxy)phenyl)-6-(o-tolyl)-5H-pyrrolo[3,2-d] pyrimidin-2-amine], at human RIPK2 kinase, the pIC50 is ≥ 7.00. In addition, the concentration for 50% growth inhibition (GI50) (in data set [1]; in data set [2]; in data set [3]; in the data set with HT-29 colon cancer cells; in data set [4]; in data set [5]) was 1000 to 10000 nM each time.

As a reminder, the pIC50 is −log10 of the IC50, conventionally taken in molar units. In general, GI50 refers to the concentration giving 50% growth inhibition.
